Results reported in ChEMBL document CHEMBL4393680, “Design, synthesis and biological evaluation of novel thioquinazolinone-based 2-aminobenzamide derivatives as potent histone deacetylase (HDAC) inhibitors” (Eur J Med Chem, 2019).
Active and inactive are the calls of the source. The rule behind the calls is not given here.

How the values were obtained:
A-375 [1] = test: Antiproliferative activity against human A375 cells assessed as reduction in cell growth incubated for 72 hrs by CCK-8 assay; format: functional, cell-based; conditions: A-375, 72 h
SMMC-7721 [2] = test: Induction of apoptosis in human SMMC7721 cells incubated for 48 hrs by Annexin-V-FITC/propidium iodide staining based flow cytometry; format: functional, cell-based
Histone deacetylase 2 = Histone deacetylase 2 (Homo sapiens, UniProt Q92769); test: Inhibition of HDAC2 in human SMMC7721 cells assessed as increase in H3K9 acetylation at 1uM incubated for 48 hrs by DAPI staining based confocal fluorescence microscopy; format: cell-based
Sequence of Histone deacetylase 2 (Q92769 whole entry): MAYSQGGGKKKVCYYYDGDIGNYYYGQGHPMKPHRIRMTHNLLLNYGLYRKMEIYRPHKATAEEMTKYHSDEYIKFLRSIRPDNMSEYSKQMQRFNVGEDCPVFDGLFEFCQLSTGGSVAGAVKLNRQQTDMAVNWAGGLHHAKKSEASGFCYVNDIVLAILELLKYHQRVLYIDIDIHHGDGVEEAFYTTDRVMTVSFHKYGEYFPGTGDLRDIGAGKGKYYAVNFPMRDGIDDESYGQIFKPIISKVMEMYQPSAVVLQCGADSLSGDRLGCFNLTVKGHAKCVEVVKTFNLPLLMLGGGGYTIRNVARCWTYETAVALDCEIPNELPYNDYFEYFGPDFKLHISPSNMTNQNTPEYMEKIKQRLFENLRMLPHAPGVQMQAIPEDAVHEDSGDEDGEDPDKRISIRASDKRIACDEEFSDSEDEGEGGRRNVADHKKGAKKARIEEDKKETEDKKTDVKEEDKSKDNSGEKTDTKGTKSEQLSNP

SMMC-7721 [3] = test: Antiproliferative activity against human SMMC7721 cells assessed as reduction in cell growth incubated for 72 hrs by CCK-8 assay; format: functional, cell-based; conditions: SMMC-7721, 72 h
SMMC-7721 [4] = test: Induction of apoptosis in human SMMC7721 cells assessed as late apoptotic cells at 0.25 uM incubated for 48 hrs by Annexin-V-FITC/propidium iodide staining based flow cytometry (Rvb=1.73%); format: functional
SMMC-7721 [5] = test: Induction of apoptosis in human SMMC7721 cells assessed as late apoptotic cells at 1 uM incubated for 48 hrs by Annexin-V-FITC/propidium iodide staining based flow cytometry (Rvb=1.73%); format: functional
SMMC-7721 [6] = test: Cell cycle arrest in human SMMC7721 cells assessed as accumulation at S phase incubated for 48 hrs by propidium iodide staining-based flow cytometry; format: functional
SMMC-7721 [7] = test: Cell cycle arrest in human SMMC7721 cells assessed as accumulation at G2/M phase at 4 uM incubated for 48 hrs by propidium iodide staining based flow cytometry (Rvb=16.17%); format: functional
SMMC-7721 [8] = test: Induction of apoptosis in human SMMC7721 cells assessed as viable cells at 4 uM incubated for 48 hrs by Annexin-V-FITC/propidium iodide staining based flow cytometry (Rvb=93.5%); format: functional; conditions: SMMC-7721, 48 h, read-out: Activity
A549 [9] = test: Antiproliferative activity against human A549 cells assessed as reduction in cell growth at 8 uM incubated for 72 hrs by CCK-8 assay relative to control; format: functional; conditions: A549, 72 h
HCT-116 [10] = test: Antiproliferative activity against human HCT116 cells assessed as reduction in cell growth incubated for 72 hrs by CCK-8 assay; format: functional, cell-based; conditions: HCT-116, 72 h
SMMC-7721 [11] = test: Cell cycle arrest in human SMMC7721 cells assessed as accumulation at G0/G1 phase at 0.25 uM incubated for 48 hrs by propidium iodide staining based flow cytometry (Rvb=77%); format: functional
SMMC-7721 [12] = test: Induction of apoptosis in human SMMC7721 cells assessed as late apoptotic cells at 4 uM incubated for 48 hrs by Annexin-V-FITC/propidium iodide staining based flow cytometry (Rvb=1.73%); format: functional
SMMC-7721 [13] = test: Induction of apoptosis in human SMMC7721 cells assessed as early apoptotic cells at 1 uM incubated for 48 hrs by Annexin-V-FITC/propidium iodide staining based flow cytometry (Rvb=2.88%); format: functional
SMMC-7721 [14] = test: Induction of apoptosis in human SMMC7721 cells assessed as necrotic cells at 1 uM incubated for 48 hrs by Annexin-V-FITC/propidium iodide staining based flow cytometry (Rvb=1.88%); format: functional
SMMC-7721 [15] = test: Cell cycle arrest in human SMMC7721 cells assessed as accumulation at G0/G1 phase at 4 uM incubated for 48 hrs by propidium iodide staining based flow cytometry (Rvb=77%); format: functional
SMMC-7721 [16] = test: Induction of apoptosis in human SMMC7721 cells assessed as viable cells at 1 uM incubated for 48 hrs by Annexin-V-FITC/propidium iodide staining based flow cytometry (Rvb=93.5%); format: functional; conditions: SMMC-7721, 48 h, read-out: Activity
Histone deacetylase = test: Inhibition of HDAC in human HeLa cell nuclear extract using fluor-de-lys-green as substrate preincubated for 10 mins followed by substrate addition and measured after 30 mins by fluorescence assay; format: cell-based
NIH3T3 = test: Cytotoxicity against mouse NIH/3T3 cells assessed as reduction in cell viability after 48 hrs by CCK8 assay; format: cell-based; conditions: NIH3T3, 48 h
A549 [17] = test: Antiproliferative activity against human A549 cells assessed as reduction in cell growth incubated for 72 hrs by CCK-8 assay; format: functional, cell-based; conditions: A549, 72 h
HCT-116 [18] = test: Antiproliferative activity against human HCT116 cells assessed as reduction in cell growth at 2 uM incubated for 72 hrs by CCK-8 assay relative to control; format: functional; conditions: HCT-116, 72 h
SMMC-7721 [19] = test: Cell cycle arrest in human SMMC7721 cells assessed as accumulation at S phase at 0.25 uM incubated for 48 hrs by propidium iodide staining based flow cytometry (Rvb=6.83%); format: functional
SMMC-7721 [20] = test: Induction of apoptosis in human SMMC7721 cells assessed as necrotic cells at 0.25 uM incubated for 48 hrs by Annexin-V-FITC/propidium iodide staining based flow cytometry (Rvb=1.88%); format: functional
SMMC-7721 [21] = test: Cell cycle arrest in human SMMC7721 cells assessed as accumulation at G0/G1 phase at 1 uM incubated for 48 hrs by propidium iodide staining based flow cytometry (Rvb=77%); format: functional
SMMC-7721 [22] = test: Induction of apoptosis in human SMMC7721 cells assessed as necrotic cells at 4 uM incubated for 48 hrs by Annexin-V-FITC/propidium iodide staining based flow cytometry (Rvb=1.88%); format: functional
HCT-116 [23] = test: Antiproliferative activity against human HCT116 cells assessed as reduction in cell growth at 8 uM incubated for 72 hrs by CCK-8 assay relative to control; format: functional; conditions: HCT-116, 72 h
SMMC-7721 [24] = test: Induction of apoptosis in human SMMC7721 cells assessed as early apoptotic cells at 0.25 uM incubated for 48 hrs by Annexin-V-FITC/propidium iodide staining based flow cytometry (Rvb=2.88%); format: functional
A-375 [25] = test: Antiproliferative activity against human A375 cells assessed as reduction in cell growth at 2 uM incubated for 72 hrs by CCK-8 assay relative to control; format: functional; conditions: A-375, 72 h
Histone deacetylase 1 = Histone deacetylase 1 (Homo sapiens, UniProt Q13547); test: Inhibition of human recombinant His-tagged HDAC1 (482 residues) expressed in baculovirus infected insect cells using FLUOR DE LYS SIRT1 as substrate incubated for 10 mins followed by substrate addition and measured after 30 mins by fluorescence method
Sequence of Histone deacetylase 1 (Q13547 whole entry): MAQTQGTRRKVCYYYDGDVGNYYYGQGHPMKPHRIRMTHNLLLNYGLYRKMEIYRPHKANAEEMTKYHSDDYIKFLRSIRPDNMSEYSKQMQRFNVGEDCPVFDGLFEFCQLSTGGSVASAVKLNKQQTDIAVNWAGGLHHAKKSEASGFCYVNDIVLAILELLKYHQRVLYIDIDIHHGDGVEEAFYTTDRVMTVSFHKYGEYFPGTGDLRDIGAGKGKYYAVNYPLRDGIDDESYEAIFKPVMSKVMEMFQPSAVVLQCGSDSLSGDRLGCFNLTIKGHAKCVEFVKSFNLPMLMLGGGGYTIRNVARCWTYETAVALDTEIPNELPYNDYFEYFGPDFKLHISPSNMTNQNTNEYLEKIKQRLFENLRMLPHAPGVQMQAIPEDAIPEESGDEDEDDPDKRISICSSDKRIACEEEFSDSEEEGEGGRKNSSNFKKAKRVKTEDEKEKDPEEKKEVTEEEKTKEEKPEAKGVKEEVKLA

HeLa [26] = test: Antiproliferative activity against human HeLa cells assessed as reduction in cell growth at 8 uM incubated for 72 hrs by CCK-8 assay relative to control; format: functional
SMMC-7721 [27] = test: Induction of apoptosis in human SMMC7721 cells assessed as early apoptotic cells at 4 uM incubated for 48 hrs by Annexin-V-FITC/propidium iodide staining based flow cytometry (Rvb=2.88%); format: functional
A549 [28] = test: Antiproliferative activity against human A549 cells assessed as reduction in cell growth at 2 uM incubated for 72 hrs by CCK-8 assay relative to control; format: functional; conditions: A549, 72 h
SMMC-7721 [29] = test: Induction of apoptosis in human SMMC7721 cells assessed as viable cells at 0.25 uM incubated for 48 hrs by Annexin-V-FITC/propidium iodide staining based flow cytometry (Rvb=93.5%); format: functional; conditions: SMMC-7721, 48 h, read-out: Activity
HeLa [30] = test: Antiproliferative activity against human HeLa cells assessed as reduction in cell growth at 2 uM incubated for 72 hrs by CCK-8 assay relative to control; format: functional
SMMC-7721 [31] = test: Cell cycle arrest in human SMMC7721 cells assessed as accumulation at G2/M phase at 1 uM incubated for 48 hrs by propidium iodide staining based flow cytometry (Rvb=16.17%); format: functional

Row | IC50 (A-375 [1]) [µM] | inhibition (Histone deacetylase 2) | IC50 (SMMC-7721 [3]) [µM] | IC50 (HCT-116 [10]) [µM] | IC50 (Histone deacetylase) [µM] | IC50 (A549 [17]) [µM] | SMILES | Activity (SMMC-7721 [2]) | Activity (SMMC-7721 [4]) [%] | Activity (SMMC-7721 [5]) [%] | Activity (SMMC-7721 [6]) | Activity (SMMC-7721 [7]) [%] | viability at 4 µM (SMMC-7721 [8]) [%] | inhibition at 8 µM (A549 [9]) [%] | Activity (SMMC-7721 [11]) [%] | Activity (SMMC-7721 [12]) [%] | Activity (SMMC-7721 [13]) [%] | Activity (SMMC-7721 [14]) [%] | Activity (SMMC-7721 [15]) [%] | viability at 1 µM (SMMC-7721 [16]) [%] | IC50 (NIH3T3) [µM] | also measured
1 | 2.84 | Active | 5.58 | 1.22 | 4.94 | 4.6 | Cn1c(SCc2ccc(C(=O)Nc3ccccc3N)cc2)nc2cc(Br)ccc2c1=O | Dose-dependent effect | 9.88 | 33.8 | Dose-dependent effect | 19.19 | 26.9 | 66.2 | 65.59 | 51.4 | 3.12 | 13.6 | 56.05 | 49.5 | 4.02 | inhibition at 2 µM (HCT-116 [18]): 72.4%; Activity (SMMC-7721 [19]): 15.53%; Activity (SMMC-7721 [20]): 4.73%; Activity (SMMC-7721 [21]): 56.35%; Activity (SMMC-7721 [22]): 15.1%; inhibition at 8 µM (HCT-116 [23]): 88.4%; Activity (SMMC-7721 [24]): 6.01%; inhibition at 2 µM (A-375 [25]): 34.5%; IC50 (Histone deacetylase 1): 0.29 µM; inhibition at 8 µM (HeLa [26]): 72.8%; Activity (SMMC-7721 [27]): 6.61%; inhibition at 2 µM (A549 [28]): 37.5%; viability at 0.25 µM (SMMC-7721 [29]): 79.4%; inhibition at 2 µM (HeLa [30]): 32.3%; Activity (SMMC-7721 [31]): 25.37%
2 | 3.51 | Active | 2.16 | 2.38 | 0.83 | 6.27 | COc1ccc2c(=O)n(-c3ccccc3Cl)c(SCc3ccc(C(=O)Nc4ccccc4N)cc3)nc2c1 | Dose-dependent effect | 13.1 | 19.1 | Dose-dependent effect | 27.3 | 65.8 | 80.6 | 48.75 | 20.4 | 7.67 | 7.63 | 27.52 | 65.6 | 3.39 | inhibition at 2 µM (HCT-116 [18]): 43.7%; Activity (SMMC-7721 [19]): 19.96%; Activity (SMMC-7721 [20]): 2.7%; Activity (SMMC-7721 [21]): 34.49%; Activity (SMMC-7721 [22]): 8.28%; inhibition at 8 µM (HCT-116 [23]): 83.3%; Activity (SMMC-7721 [24]): 15.9%; inhibition at 2 µM (A-375 [25]): 41.8%; IC50 (Histone deacetylase 1): 0.38 µM; inhibition at 8 µM (HeLa [26]): 82.7%; Activity (SMMC-7721 [27]): 5.54%; inhibition at 2 µM (A549 [28]): 52.5%; viability at 0.25 µM (SMMC-7721 [29]): 68.3%; inhibition at 2 µM (HeLa [30]): 54.4%; Activity (SMMC-7721 [31]): 37.07%
